In patent US11925607B2, “Ketamine composition for use in a method of treatment of depression by pulmonary administration” (Celon Pharma S.A., priority 2018, dated 2024):

How the values were obtained:
[1] = test system: patients with treatment-resistant depression; details: cited from earlier work
healthy volunteers = assay: Adverse effects monitoring in clinical study, assessed by a psychiatrist; format: in vivo, human; details: pulmonary administration
Experimental: Both in Part A and Part B of the study the adverse effects were monitored and assessed by a psychiatrist. The summary of the adverse effects is presented in FIG. 10 (Part A) and FIG. 11 (Part B). […] Psychomimetic effects were transient, lasting up to 30 minutes following administration. […] In Part C of the study adverse effects were monitored and assessed by a psychiatrist after each sequence of administration, i.e. on Day 1, Day 4, Day 8 and Day 11. The summary of adverse effects for Part C is presented on FIGS. 12A to 12D for Day 1, Day 4, Day 8 and Day 11, respectively. […] Psychomimetic effects were transient, lasting up to 30 minutes following administration.

[2] = 0.20 mg/kg 40 minutes intravenous infusion, predicted from literature data; cited from earlier work
[3] = Pharmacokinetics of inhaled esketamine dry powder in healthy volunteers, clinical study; format: in vivo, human; details: pulmonary administration, overall conclusion
Experimental: Esketamine hydrochloride dry powder formulation of Example 2 was administered to healthy volunteers pulmonary, i.e. directly to the lungs using dry powder inhaler (DPI) (by self-administration), under supervision of medical personnel.
One puff of dry powder formulation contained 4.6 mg of esketamine hydrochloride, corresponding to 4 mg of esketamine free base and excipients 18.22 mg of lactose monohydrate and 0.18 mg of magnesium stearate.
A single dose was an inhalation events consisting of 1 to 6 puffs, i.e. 4 to 24 mg of esketamine free base nominal dose.
In part A of the study, designed as a one-centre single ascending dose, the medicine was delivered in a single dose once in one day (up to 6 consecutive puffs) to 18 healthy volunteer subjects. Subjects were divided into 6 cohorts, cohorts receiving 1, 2, 3, 4, 5 or 6 puffs in a single dose (inhalation event), respectively. Collection of blood samples for determination of esketamine and esnorketamine metabolite concentration and calculation of pharmacokinetic parameters was performed for 24 hours following the start of the test in the administration day. The aim of the study was to determine the amount of puffs in an inhalation event needed to obtain plasma concentration similar to that sufficient to achieve antidepressant effect as for 0.20 mg/kg 40 minutes intravenous infusion. […]

NMDA receptor = details: cited from earlier work
[4] = cited from earlier work
[5] = cited from earlier work; remark: listed apart in the source
[6] = nebulized esketamine hydrochloride saline solution; cited from earlier work
[7] = after intravenous infusion of racemic ketamine
[8] = after oral administration of ketamine

CN[C@]1(c2ccccc2Cl)CCCCC1=O [esketamine]
antidepressant effect ([1]; TRD patients, 40-minute i.v. infusion of 0.20 mg/kg or 0.40 mg/kg (Singh et al.)): rapid onset of robust antidepressant effects | safety of plasma concentration profile (healthy volunteers): safe for chronic administration | concentration at 40 min of infusion [2]: 60 to 100 ng/mL | Plasma concentration profile [3]: quite smooth, consistent with a target profile

NC1(c2ccccc2Cl)CCCCC1=O (centres unmarked) [norketamine]
activity on NMDA receptor relative to ketamine (NMDA receptor): many times less active than ketamine | maximum concentration as % of ketamine concentration [4, 7]: 10-20% | percentage of AUC norketamine to ketamine [4, 7]: 20-40% | AUC as % of ketamine [5, 8]: exceeding 1000% | level as % of ketamine level [5, 8]: 500-1000%

CNC1(c2ccccc2Cl)CCCCC1=O (racemic) [ketamine]
fraction of patients with treatment-resistant depression responsive ([1]; human, in vivo): about ⅔ | half-period of concentration fall ([4]; after intravenous infusion 0.5 mg/kg for 40 minutes): below 2 hours | systemic concentration of parent drug ([4]; intravenous infusion 0.5 mg/kg for 40 minutes, maintained about 40 minutes): about 200 ng/ml | bioavailability ([5]; orally administered): 16-20% | inhaled bioavailability [6]: reduced
